Assay results taken from PubChem BioAssay (NCI).
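96-well plates; 48 h exposure; 5 concentrations. Endpoints by linear interpolation between flanking doses. Not reached: highest tested concentration assigned. TGI denotes the concentration required for complete inhibition of growth.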

Key:
Assay in all cases: DTP human tumour cell line panel, 48 h
786-0 renal = test system: 786-0 renal
A498 renal = test system: A498 renal
A549 NSCLC = test system: A549 NSCLC
ACHN renal = test system: ACHN renal
BT-549 breast = test system: BT-549 breast
COLO 205 colon = test system: COLO 205 colon
DU-145 prostate = test system: DU-145 prostate
EKVX NSCLC = test system: EKVX NSCLC
HCT-116 colon = test system: HCT-116 colon
HCT-15 colon = test system: HCT-15 colon
HL-60(TB) leukemia = test system: HL-60(TB) leukemia
HOP-62 NSCLC = test system: HOP-62 NSCLC
HOP-92 NSCLC = test system: HOP-92 NSCLC
HS 578T breast = test system: HS 578T breast
HT29 colon = test system: HT29 colon
IGROV1 ovarian = test system: IGROV1 ovarian
K-562 leukemia = test system: K-562 leukemia
LOX IMVI melanoma = test system: LOX IMVI melanoma
M14 melanoma = test system: M14 melanoma
MALME-3M melanoma = test system: MALME-3M melanoma
MCF7 breast = test system: MCF7 breast
MDA-MB-231 breast = test system: MDA-MB-231 breast
MDA-MB-435 = test system: MDA-MB-435
MDA-N = test system: MDA-N
MOLT-4 leukemia = test system: MOLT-4 leukemia
NCI-H23 lung = test system: NCI-H23 lung
NCI-H460 lung = test system: NCI-H460 lung
NCI-H522 lung = test system: NCI-H522 lung
NCI/ADR-RES ovarian = test system: NCI/ADR-RES ovarian
OVCAR-3 ovarian = test system: OVCAR-3 ovarian
OVCAR-4 ovarian = test system: OVCAR-4 ovarian
OVCAR-5 ovarian = test system: OVCAR-5 ovarian
OVCAR-8 ovarian = test system: OVCAR-8 ovarian
PC-3 prostate = test system: PC-3 prostate
RPMI-8226 leukemia = test system: RPMI-8226 leukemia
RXF 393 renal = test system: RXF 393 renal
SF-268 CNS = test system: SF-268 CNS
SF-295 CNS = test system: SF-295 CNS
SF-539 CNS = test system: SF-539 CNS
SK-MEL-2 melanoma = test system: SK-MEL-2 melanoma
SK-MEL-28 melanoma = test system: SK-MEL-28 melanoma
SK-MEL-5 melanoma = test system: SK-MEL-5 melanoma
SK-OV-3 ovarian = test system: SK-OV-3 ovarian
SN12C renal = test system: SN12C renal
SNB-19 CNS = test system: SNB-19 CNS
SNB-75 CNS = test system: SNB-75 CNS
SR leukemia = test system: SR leukemia
SW-620 colon = test system: SW-620 colon
T-47D breast = test system: T-47D breast
TK-10 renal = test system: TK-10 renal
U251 CNS = test system: U251 CNS
UACC-257 melanoma = test system: UACC-257 melanoma
UACC-62 melanoma = test system: UACC-62 melanoma

Measured: TGI

COC(=O)C1(C)CCC(c2ccc(C)cc2)=C(CC(=O)O)C1 (stereo not drawn)
> 100 µM: all assays above
